Key:
CDK4/Cyclin D1 = CDK4/Cyclin D1 (Homo sapiens (Human), UniProt P11802); test: CDK4/Cyclin D1 kinase TR-FRET inhibition assay; assay type: biochemical; settings: 1 mM ATP, Rb (Ser780)-biotin substrate, read-out: CDK4D1 IC50
Procedure: (§1) Compounds disclosed herein were tested for inhibition of CDK4/Cyclin D1 or CDK6/Cyclin D3 kinase in an assay based on the time-resolved fluorescence-resonance energy transfer (TR-FRET) methodology. The assay was carried out in 384-well low volume black plates in a reaction mixture containing CDK4/Cyclin D1 or CDK6/Cyclin D3, 1 mM ATP, 0.15 μM Rb (Ser780)-biotin substrate and 0-10 μM compound in buffer containing 50 mM HEPES pH7.0, 0.02% NaN3, 0.01% BSA, 0.1 mM Orthovanadate, 50 mM MgCl2, 1 mM DTT and 0.005% Tween-20. The kinase was incubated with compound for 60 minutes at room temperature and the reaction was initiated by the addition of ATP and Rb (Ser780)-biotin substrate. After reaction at room temperature for 120 minutes, an equal volume of stop/detection solution was added according to the manufacture's instruction (Cisbio Bioassays). The stop/detection solution contained Streptavidin-XL665 and Anti-pRb (Ser780) mAb-Eu Cryptate in Detection buffer (Cisbio Bioassays). Plates were incubated at room temperature for 60 minutes, and the TR-FRET signals (ex337 nm, em665 nm/620 nm) were recorded on a PHERAstar FSX plate reader (BMG Labtech). The inhibition percentage of CDK4/Cyclin D1 or CDK6/Cyclin D3 kinase activity in presence of increasing concentrations of compounds was calculated based on the ratio of fluorescence at 665 nm to that at 620 nm. The IC50 for each compound was derived from fitting the data to the four-parameter logistic equation by Dotmatics.

CDK6/Cyclin D3 = CDK6/Cyclin D3 (Homo sapiens (Human), UniProt Q00534); test: CDK6/Cyclin D3 kinase TR-FRET inhibition assay; assay type: biochemical; settings: 1 mM ATP, Rb (Ser780)-biotin substrate, read-out: CDK6D3 IC50
Procedure: as §1

CDK6/Cyclin D3, sequence (Q00534 whole entry): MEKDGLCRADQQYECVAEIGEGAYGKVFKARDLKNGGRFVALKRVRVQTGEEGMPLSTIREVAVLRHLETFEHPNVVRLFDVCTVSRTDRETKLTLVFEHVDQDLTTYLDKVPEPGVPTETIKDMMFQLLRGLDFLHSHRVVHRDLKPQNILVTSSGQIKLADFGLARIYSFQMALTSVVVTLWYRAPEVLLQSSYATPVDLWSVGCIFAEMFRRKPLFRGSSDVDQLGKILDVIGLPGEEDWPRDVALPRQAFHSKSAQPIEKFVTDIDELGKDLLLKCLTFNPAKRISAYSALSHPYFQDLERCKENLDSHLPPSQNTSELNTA
CDK6/Cyclin D3, sequence (P30281 whole entry partner): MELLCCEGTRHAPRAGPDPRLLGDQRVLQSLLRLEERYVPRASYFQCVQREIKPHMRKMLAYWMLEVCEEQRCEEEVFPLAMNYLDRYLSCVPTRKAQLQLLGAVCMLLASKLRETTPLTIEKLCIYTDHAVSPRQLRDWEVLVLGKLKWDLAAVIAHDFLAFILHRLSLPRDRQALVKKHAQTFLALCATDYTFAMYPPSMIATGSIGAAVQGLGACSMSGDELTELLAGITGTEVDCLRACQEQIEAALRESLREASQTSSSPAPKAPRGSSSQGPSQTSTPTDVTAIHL
CDK4/Cyclin D1, sequence (P11802 whole entry): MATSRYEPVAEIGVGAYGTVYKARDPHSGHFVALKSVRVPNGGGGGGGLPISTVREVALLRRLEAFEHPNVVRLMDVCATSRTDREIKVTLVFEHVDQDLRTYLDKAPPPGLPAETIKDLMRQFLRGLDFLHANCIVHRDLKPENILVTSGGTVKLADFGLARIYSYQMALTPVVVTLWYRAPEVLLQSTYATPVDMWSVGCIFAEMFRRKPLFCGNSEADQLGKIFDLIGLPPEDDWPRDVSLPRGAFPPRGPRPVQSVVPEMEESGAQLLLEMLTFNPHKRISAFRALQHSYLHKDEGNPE
CDK4/Cyclin D1, sequence (P24385 whole entry partner): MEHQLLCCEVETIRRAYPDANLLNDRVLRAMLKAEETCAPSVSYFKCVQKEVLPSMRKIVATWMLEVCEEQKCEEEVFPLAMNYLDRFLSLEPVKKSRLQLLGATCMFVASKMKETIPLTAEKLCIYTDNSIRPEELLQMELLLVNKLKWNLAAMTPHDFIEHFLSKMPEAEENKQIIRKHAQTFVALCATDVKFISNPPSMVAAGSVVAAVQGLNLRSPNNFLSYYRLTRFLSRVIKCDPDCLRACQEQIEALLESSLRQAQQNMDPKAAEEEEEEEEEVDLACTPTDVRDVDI

SMILES | IC50 (CDK4/Cyclin D1) [nM] | IC50 (CDK6/Cyclin D3) [nM]
COCc1cnc2ccc(-c3nc(N[C@@H]4CCOC[C@H]4O)ncc3F)cc2c1C(C)C [Example 31, (3S,4R)-4-((5-fluoro-4-(4-isopropyl-3-(methoxymethyl)quinolin-6-yl)pyrimidin-2-yl)amino)tetrahydro-2H-pyran-3-ol] | 25 | 275
CC(C)c1c(CNC[C@@H]2CCOC2)cnc2ccc(-c3nc(N[C@@H]4CCOC[C@H]4O)ncc3F)cc12 [Example 33, (3S,4R)-4-((5-fluoro-4-(4-isopropyl-3-(((((S)-tetrahydrofuran-3-yl)methyl)amino)methyl)quinolin-6-yl)pyrimidin-2-yl)amino)tetrahydro-2H-pyran-3-ol] | 22 | 792
CC(C)c1c(CNC[C@@H]2CCCO2)cnc2ccc(-c3nc(N[C@@H]4CCOC[C@H]4O)ncc3F)cc12 [Example 34, (3S,4R)-4-((5-fluoro-4-(4-isopropyl-3-(((((S)-tetrahydrofuran-2-yl)methyl)amino)methyl)quinolin-6-yl)pyrimidin-2-yl)amino)tetrahydro-2H-pyran-3-ol] | 27 | 783
CC(C)c1c(CN[C@@H]2CCOC2)cnc2ccc(-c3nc(N[C@@H]4CCOC[C@H]4O)ncc3F)cc12 [Example 35, (3S,4R)-4-((5-fluoro-4-(4-isopropyl-3-((((R)-tetrahydrofuran-3-yl)amino)methyl)quinolin-6-yl)pyrimidin-2-yl)amino)tetrahydro-2H-pyran-3-ol] | 16 | 592
CC(C)c1c(CN2CCOCC23CC3)cnc2ccc(-c3nc(N[C@@H]4CCOC[C@H]4O)ncc3F)cc12 [Example 36, (3S,4R)-4-((4-(3-((7-oxa-4-azaspiro[2.5]octan-4-yl)methyl)-4-isopropylquinolin-6-yl)-5-fluoropyrimidin-2-yl)amino)tetrahydro-2H-pyran-3-ol] | 14 | 224
CC(C)c1c(CN)cnc2ccc(-c3nc(N[C@@H]4CCOC[C@H]4O)ncc3F)cc12 [Example 38, (3S,4R)-4-((4-(3-(aminomethyl)-4-isopropylquinolin-6-yl)-5-fluoropyrimidin-2-yl)amino)tetrahydro-2H-pyran-3-ol] | 4.4 | 176
CC(C)c1c([C@@H](C)O)cnc2ccc(-c3nc(N[C@@H]4CCOC[C@H]4O)ncc3F)cc12 [Example 42, (3S,4R)-4-((5-fluoro-4-(3-((R)-1-hydroxyethyl)-4-isopropylquinolin-6-yl)pyrimidin-2-yl)amino)tetrahydro-2H-pyran-3-ol] | 32 | 480
CC(C)c1c(CN2CCCOCC2)cnc2ccc(-c3nc(N[C@@H]4CCOC[C@H]4O)ncc3F)cc12 [Example 44, (3S,4R)-4-((4-(3-((1,4-oxazepan-4-yl)methyl)-4-isopropylquinolin-6-yl)-5-fluoropyrimidin-2-yl)amino)tetrahydro-2H-pyran-3-ol] | 25 | 475
CC(C)c1c(CNc2ncccn2)cnc2ccc(-c3nc(N[C@@H]4CCOC[C@H]4O)ncc3F)cc12 [Example 45, (3S,4R)-4-((5-fluoro-4-(4-isopropyl-3-((pyrimidin-2-ylamino)methyl)quinolin-6-yl)pyrimidin-2-yl)amino)tetrahydro-2H-pyran-3-ol] | 22 | 286
COc1ccc(NCc2cnc3ccc(-c4nc(N[C@@H]5CCOC[C@H]5O)ncc4F)cc3c2C(C)C)cc1 [Example 46, (3S,4R)-4-((5-fluoro-4-(4-isopropyl-3-(((4-methoxyphenyl)amino)methyl)quinolin-6-yl)pyrimidin-2-yl)amino)tetrahydro-2H-pyran-3-ol] | 65 | 1040
CC(C)c1c([C@H](C)N2CC[C@@H](F)C2)cnc2ccc(-c3nc(N[C@@H]4CCOC[C@H]4O)ncc3F)cc12 [Example 47, (3S,4R)-4-((5-fluoro-4-(3-((S)-1-((R)-3-fluoropyrrolidin-1-yl)ethyl)-4-isopropylquinolin-6-yl)pyrimidin-2-yl)amino)tetrahydro-2H-pyran-3-ol] | 25 | 250
CC(C)c1c([C@@H](C)N2CC[C@@H](F)C2)cnc2ccc(-c3nc(N[C@@H]4CCOC[C@H]4O)ncc3F)cc12 [Example 48, (3S,4R)-4-((5-fluoro-4-(3-((R)-1-((R)-3-fluoropyrrolidin-1-yl)ethyl)-4-isopropylquinolin-6-yl)pyrimidin-2-yl)amino)tetrahydro-2H-pyran-3-ol] | 21 | 756
CC(C)c1c(C2(O)CCCC2)cnc2ccc(-c3nc(N[C@@H]4CCOC[C@H]4O)ncc3F)cc12 [Example 50, (3S,4R)-4-((5-fluoro-4-(3-(1-hydroxycyclopentyl)-4-isopropylquinolin-6-yl)pyrimidin-2-yl)amino)tetrahydro-2H-pyran-3-ol] | 4.4 | 185

The remaining molecules from weak to strong by IC50 (CDK4/Cyclin D1), led by results:

IC50 (CDK4/Cyclin D1) [nM] | IC50 (CDK6/Cyclin D3) [nM] | SMILES
41 | 533 | CC(C)c1c(CNc2cnn(C)c2)cnc2ccc(-c3nc(N[C@@H]4CCOC[C@H]4O)ncc3F)cc12 [Example 43, (3S,4R)-4-((5-fluoro-4-(4-isopropyl-3-(((1-methyl-1H-pyrazol-4-yl)amino)methyl)quinolin-6-yl)pyrimidin-2-yl)amino)tetrahydro-2H-pyran-3-ol]
33 | 759 | CC(C)c1c(CN[C@@H]2CCOC2)cnc2ccc(-c3nc(N[C@@H]4CCOC[C@H]4O)ncc3F)cc12 [Example 40, (3S,4R)-4-((5-fluoro-4-(4-isopropyl-3-((((R)-tetrahydrofuran-3-yl)amino)methyl)quinolin-6-yl)pyrimidin-2-yl)amino)tetrahydro-2H-pyran-3-ol]
27 | 945 | CC(C)c1c(CN[C@H]2CCCOC2)cnc2ccc(-c3nc(N[C@@H]4CCOC[C@H]4O)ncc3F)cc12 [Example 37, (3S,4R)-4-((5-fluoro-4-(4-isopropyl-3-((((S)-tetrahydro-2H-pyran-3-yl)amino)methyl)quinolin-6-yl)pyrimidin-2-yl)amino)tetrahydro-2H-pyran-3-ol]
25 | 750 | CC(C)c1c(CN[C@H]2CCOC2)cnc2ccc(-c3nc(N[C@@H]4CCOC[C@H]4O)ncc3F)cc12 [Example 39, (3S,4R)-4-((5-fluoro-4-(4-isopropyl-3-((((S)-tetrahydrofuran-3-yl)amino)methyl)quinolin-6-yl)pyrimidin-2-yl)amino)tetrahydro-2H-pyran-3-ol]
23 | 828 | CC(C)c1c(CNC[C@H]2CCOC2)cnc2ccc(-c3nc(N[C@@H]4CCOC[C@H]4O)ncc3F)cc12 [Example 27, (3S,4R)-4-((5-fluoro-4-(4-isopropyl-3-(((((R)-tetrahydrofuran-3-yl)methyl)amino)methyl)quinolin-6-yl)pyrimidin-2-yl)amino)tetrahydro-2H-pyran-3-ol]
20 | 860 | CC(C)c1c(CNC2CCOCC2)cnc2ccc(-c3nc(N[C@@H]4CCOC[C@H]4O)ncc3F)cc12 [Example 29, (3S,4R)-4-((5-fluoro-4-(4-isopropyl-3-(((tetrahydro-2H-pyran-4-yl)amino)methyl)quinolin-6-yl)pyrimidin-2-yl)amino)tetrahydro-2H-pyran-3-ol]
19 | 703 | CC(C)c1c(CNC2CCCCC2)cnc2ccc(-c3nc(N[C@@H]4CCOC[C@H]4O)ncc3F)cc12 [Example 28]
14 | 392 | CC(C)c1c(CN2C[C@H]3C[C@@H]2CO3)cnc2ccc(-c3nc(N[C@@H]4CCOC[C@H]4O)ncc3F)cc12 [Example 49, (3S,4R)-4-((4-(3-(((1R,4R)-2-oxa-5-azabicyclo[2.2.1]heptan-5-yl)methyl)-4-isopropylquinolin-6-yl)-5-fluoropyrimidin-2-yl)amino)tetrahydro-2H-pyran-3-ol]
11 | 550 | CC(C)c1c(CN[C@@H]2CCCOC2)cnc2ccc(-c3nc(N[C@@H]4CCOC[C@H]4O)ncc3F)cc12 [Example 30, (3S,4R)-4-((5-fluoro-4-(4-isopropyl-3-((((R)-tetrahydro-2H-pyran-3-yl)amino)methyl)quinolin-6-yl)pyrimidin-2-yl)amino)tetrahydro-2H-pyran-3-ol]
11 | 484 | CC(C)c1c(CN[C@H]2CCOC2)cnc2ccc(-c3nc(N[C@@H]4CCOC[C@H]4O)ncc3F)cc12 [Example 32, (3S,4R)-4-((5-fluoro-4-(4-isopropyl-3-((((S)-tetrahydrofuran-3-yl)amino)methyl)quinolin-6-yl)pyrimidin-2-yl)amino)tetrahydro-2H-pyran-3-ol]
10 | 170 | CC(C)c1c([C@H](C)O)cnc2ccc(-c3nc(N[C@@H]4CCOC[C@H]4O)ncc3F)cc12 [Example 41, (3S,4R)-4-((5-fluoro-4-(3-((S)-1-hydroxyethyl)-4-isopropylquinolin-6-yl)pyrimidin-2-yl)amino)tetrahydro-2H-pyran-3-ol]

From patent publication US20240300937A1, “Substituted 6-(Pyrimidin-4-yl)Quinoline Compounds as Cyclin Dependent Kinase Inhibitors” (BeiGene, Ltd., priority 2022, published 2024)
